Test results: patent US10213427B2 (Incyte Corporation, priority 2010, dated 2019)

biological target: FGFR3 enzyme (Millipore) (Homo sapiens (Human), UniProt P22607); assay: FGFR3 Enzymatic Assay; format: biochemical; conditions: FRET peptide phosphorylation, 140 μM ATP
Description: The inhibitor potency of compounds of the invention was measured in an enzyme assay that measures peptide phosphorylation using FRET measurements to detect product formation. Inhibitors were serially diluted in DMSO and a volume of 0.5 μL was transferred to the wells of a 384-well plate. A 10 μL volume of FGFR3 enzyme (Millipore) diluted in assay buffer (50 mM HEPES, 10 mM MgCl2, 1 mM EGTA, 0.01% Tween-20, 5 mM DTT, pH 7.5) was added to the plate and pre-incubated for 5-10 minutes. Appropriate controls (enzyme blank and enzyme with no inhibitor) were included on the plate. […] The plate was incubated at 25° C. for 1 hr. […] The plate was allowed to equilibrate for ˜1 hr before scanning the wells on a PheraStar plate reader.
GraphPad prism3 was used to analyze the data. The IC50 values were derived by fitting the data to the equation for a sigmoidal dose-response with a variable slope. Y=Bottom+(Top−Bottom)/(1+10^((Log IC50−X)*HillSlope)) where X is the logarithm of concentration and Y is the response.

Chain of FGFR3 enzyme (Millipore) (P22607 23-806): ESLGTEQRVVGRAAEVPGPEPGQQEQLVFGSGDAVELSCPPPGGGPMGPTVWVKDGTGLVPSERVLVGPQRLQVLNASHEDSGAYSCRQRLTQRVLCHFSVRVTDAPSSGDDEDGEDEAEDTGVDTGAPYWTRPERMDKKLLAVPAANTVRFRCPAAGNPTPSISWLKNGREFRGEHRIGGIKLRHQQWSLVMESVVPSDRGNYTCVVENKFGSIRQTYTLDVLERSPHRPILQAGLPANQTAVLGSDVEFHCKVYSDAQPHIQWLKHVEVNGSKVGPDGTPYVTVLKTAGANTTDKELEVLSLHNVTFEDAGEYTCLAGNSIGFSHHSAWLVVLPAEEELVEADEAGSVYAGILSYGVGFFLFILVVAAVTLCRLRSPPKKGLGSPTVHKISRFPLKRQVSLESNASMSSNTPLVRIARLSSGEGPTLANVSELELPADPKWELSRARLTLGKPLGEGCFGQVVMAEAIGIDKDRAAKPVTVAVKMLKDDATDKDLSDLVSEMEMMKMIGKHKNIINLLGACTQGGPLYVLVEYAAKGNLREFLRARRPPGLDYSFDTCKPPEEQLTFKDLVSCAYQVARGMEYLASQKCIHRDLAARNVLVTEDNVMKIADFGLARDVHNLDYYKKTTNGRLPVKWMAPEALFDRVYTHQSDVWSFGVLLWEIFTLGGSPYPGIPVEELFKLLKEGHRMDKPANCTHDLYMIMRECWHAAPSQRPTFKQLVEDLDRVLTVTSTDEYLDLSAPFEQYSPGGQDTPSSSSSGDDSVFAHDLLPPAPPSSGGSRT

IC50	SMILES
< 10 nM	O=C(NCC(F)(F)F)Nc1cccc(-n2cnc3cc(-c4cccc(C(=O)NCC5CCCO5)c4)ccc32)c1 (centres unmarked) [Example 2, N-(Tetrahydrofuran-2-ylmethyl)-3-{1-[3-({[(2,2,2-trifluoroethyl)amino]carbonyl}amino)phenyl]-1H-benzimidazol-5-yl}benzamide]
< 10 nM	CN1CCC(CNC(=O)c2cccc(-c3ccc4c(c3)ncn4-c3cccc(NC(=O)NCC(F)(F)F)c3)c2)CC1 [Example 3, N-[(1-Methylpiperidin-4-yl)methyl]-3-{1-[3-({[(2,2,2-trifluoroethyl)amino]carbonyl}amino)phenyl]-1H-benzimidazol-5-yl}benzamide]
< 10 nM	O=C(NCC(F)(F)F)Nc1cccc(-n2cnc3cc(-c4cccc(C(=O)NCCN5CCOCC5)c4)ccc32)c1 [Example 4, N-(2-Morpholin-4-ylethyl)-3-{1-[3-({[(2,2,2-trifluoroethyl)amino]carbonyl}amino)phenyl]-1H-benzimidazol-5-yl}benzamide]
< 10 nM	O=C(NCC(F)(F)F)Nc1cccc(-n2cnc3cc(-c4cccc(C(=O)NCc5cccnc5)c4)ccc32)c1 [Example 5, N-(Pyridin-3-ylmethyl)-3-{1-[3-({[(2,2,2-trifluoroethyl)amino]carbonyl}amino)phenyl]-1H-benzimidazol-5-yl}benzamide]
< 10 nM	Cn1ccnc1CNC(=O)c1cccc(-c2ccc3c(c2)ncn3-c2cccc(NC(=O)NCC(F)(F)F)c2)c1 [Example 6, N-[(1-Methyl-1H-imidazol-2-yl)methyl]-3-{1-[3-({[(2,2,2-trifluoroethyl)amino]carbonyl}amino)phenyl]-1H-benzimidazol-5-yl}benzamide]
< 10 nM	O=C(NCC(F)(F)F)Nc1cccc(-n2cnc3cc(-c4ccc(C(=O)NCC5CC5)cc4)ccc32)c1 [Example 7, N-(Cyclopropylmethyl)-4-{1-[3-({[(2,2,2-trifluoroethyl)amino]carbonyl}amino)phenyl]-1H-benzimidazol-5-yl}benzamide]
< 10 nM	O=C(NCC(F)(F)F)Nc1cccc(-n2cnc3cc(-c4ccc(C(=O)NCC5CCCO5)cc4)ccc32)c1 (centres unmarked) [Example 8, N-(Tetrahydrofuran-2-ylmethyl)-4-{1-[3-({[(2,2,2-trifluoroethyl)amino]carbonyl}amino)phenyl]-1H-benzimidazol-5-yl}benzamide]
< 10 nM	O=C(NCC(F)(F)F)Nc1cccc(-n2cnc3cc(-c4ccc(C(=O)NCC5CCCCC5O)cc4)ccc32)c1 (centres unmarked) [Example 9]
< 10 nM	CN1CCC(CNC(=O)c2ccc(-c3ccc4c(c3)ncn4-c3cccc(NC(=O)NCC(F)(F)F)c3)cc2)CC1 [Example 10, N-[(1-Methylpiperidin-4-yl)methyl]-4-{1-[3-({[(2,2,2-trifluoroethyl)amino]carbonyl}amino)phenyl]-1H-benzimidazol-5-yl}benzamide]
< 10 nM	O=C(NCC(F)(F)F)Nc1cccc(-n2cnc3cc(-c4ccc(C(=O)NCCN5CCOCC5)cc4)ccc32)c1 [Example 11, N-(2-Morpholin-4-ylethyl)-4-{1-[3-({[(2,2,2-trifluoroethyl)amino]carbonyl}amino)phenyl]-1H-benzimidazol-5-yl}benzamide]
< 10 nM	O=C(NCC(F)(F)F)Nc1cccc(-n2cnc3cc(-c4ccc(C(=O)NCc5cccnc5)cc4)ccc32)c1 [Example 12, N-(Pyridin-3-ylmethyl)-4-{1-[3-({[(2,2,2-trifluoroethyl)amino]carbonyl}amino)phenyl]-1H-benzimidazol-5-yl}benzamide]
< 10 nM	Cn1ccnc1CNC(=O)c1ccc(-c2ccc3c(c2)ncn3-c2cccc(NC(=O)NCC(F)(F)F)c2)cc1 [Example 13, N-[(1-Methyl-1H-imidazol-2-yl)methyl]-4-{1-[3-({[(2,2,2-trifluoroethyl)amino]carbonyl}amino)phenyl]-1H-benzimidazol-5-yl}benzamide]
< 10 nM	CNC(=O)C(C)c1ccc(-c2ccc3c(c2)ncn3-c2cccc(NC(=O)NCC(F)(F)F)c2)cc1 (centres unmarked) [Example 14, N-Methyl-2-(4-{1-[3-({[(2,2,2-trifluoroethyl)amino]carbonyl}amino)phenyl]-1H-benzimidazol-5-yl}phenyl)propanamide]
< 10 nM	CC(C(=O)N(C)C)c1ccc(-c2ccc3c(c2)ncn3-c2cccc(NC(=O)NCC(F)(F)F)c2)cc1 (centres unmarked) [Example 15, N,N-Dimethyl-2-(4-{1-[3-({[(2,2,2-trifluoroethyl)amino]carbonyl}amino)phenyl]-1H-benzimidazol-5-yl}phenyl)propanamide]
< 10 nM	CC(C(=O)NCC1CC1)c1ccc(-c2ccc3c(c2)ncn3-c2cccc(NC(=O)NCC(F)(F)F)c2)cc1 (centres unmarked) [Example 16, N-(Cyclopropylmethyl)-2-(4-{{1-[3-(([(2,2,2-trifluoroethyl)amino]carbonyl)}amino)phenyl]-1H-benzimidazol-5-yl}phenyl)propanamide]
< 10 nM	CC(C(=O)N1CCCC1)c1ccc(-c2ccc3c(c2)ncn3-c2cccc(NC(=O)NCC(F)(F)F)c2)cc1 (centres unmarked) [Example 17, N-(3-{5-[4-(1-Methyl-2-oxo-2-pyrrolidin-1-ylethyl)phenyl]-1H-benzimidazol-1-yl}phenyl)-N′-(2,2,2-trifluoroethyl)urea]
< 10 nM	CC(C(=O)NCC1CCCO1)c1ccc(-c2ccc3c(c2)ncn3-c2cccc(NC(=O)NCC(F)(F)F)c2)cc1 (centres unmarked) [Example 18, N-(Tetrahydrofuran-2-ylmethyl)-2-(4-{1-[3-({[(2,2,2-trifluoroethyl)amino]carbonyl}amino)phenyl]-1H-benzimidazol-5-yl}phenyl)propanamide]
< 10 nM	CC(C(=O)N1CCC(C#N)C1)c1ccc(-c2ccc3c(c2)ncn3-c2cccc(NC(=O)NCC(F)(F)F)c2)cc1 (centres unmarked) [Example 19, N-[3-(5-{4-[2-(3-Cyanopyrrolidin-1-yl)-1-methyl-2-oxoethyl]phenyl}-1H-benzimidazol-1-yl)phenyl]-N′-(2,2,2-trifluoroethyl)urea]
< 10 nM	CC(C(=O)NCc1nccn1C)c1ccc(-c2ccc3c(c2)ncn3-c2cccc(NC(=O)NCC(F)(F)F)c2)cc1 (centres unmarked) [Example 20, N-[(1-Methyl-1H-imidazol-2-yl)methyl]-2-(4-{1-[3-({[(2,2,2-trifluoroethyl)amino]carbonyl}amino)phenyl]-1H-benzimidazol-5-yl}phenyl)propanamide]
< 10 nM	O=C(NCC(F)(F)F)Nc1cccc(-n2cnc3cc(-c4cnn(C5CCN(CC6CC6)CC5)c4)ccc32)c1 [Example 21, N-[3-(5-{1-[1-(Cyclopropylmethyl)piperidin-4-yl]-1H-pyrazol-4-yl}-1H-benzimidazol-1-yl)phenyl]-N′-(2,2,2-trifluoroethyl)urea]
< 10 nM	N#CCC(n1cc(-c2ccc3c(c2)ncn3-c2cccc(NC(=O)NCC(F)(F)F)c2)cn1)C(F)(F)F (centres unmarked) [Example 22, N-[3-(5-{1-[1-(Cyanomethyl)-2,2,2-trifluoroethyl]-1H-pyrazol-4-yl}-1H-benzimidazol-1-yl)phenyl]-N′-(2,2,2-trifluoroethyl)urea]
< 10 nM	Cn1cc(C(=O)N2CCC(n3cc(-c4ccc5c(c4)ncn5-c4cccc(NC(=O)NCC(F)(F)F)c4)cn3)CC2)cn1 [Example 23, N-{3-[5-(1-{1-[(1-Methyl-1H-pyrazol-4-yl)carbonyl]piperidin-4-yl}-1H-pyrazol-4-yl)-1H-benzimidazol-1-yl]phenyl}-N′-(2,2,2-trifluoroethyl)urea]
< 10 nM	Cn1ccc(S(=O)(=O)N2CCC(n3cc(-c4ccc5c(c4)ncn5-c4cccc(NC(=O)NCC(F)(F)F)c4)cn3)CC2)n1 [Example 24, N-{3-[5-(1-{1-[(1-Methyl-1H-pyrazol-3-yl)sulfonyl]piperidin-4-yl}-1H-pyrazol-4-yl)-1H-benzimidazol-1-yl]phenyl}-N′-(2,2,2-trifluoroethyl)urea]
< 10 nM	O=C(NCC(F)(F)F)Nc1cccc(-n2cnc3cc(-c4cnn(C5CCN(C(=O)Nc6cccnc6)CC5)c4)ccc32)c1 [Example 25]
< 10 nM	O=C(NCC(F)(F)F)Nc1cccc(-n2cnc3cc(-c4cnn(C5CCN(C(=O)N6CCCC6)CC5)c4)ccc32)c1 [Example 26, N-[3-(5-{t-[1-(Pyrrolidin-1-ylcarbonyl)piperidin-4-yl]-1H-pyrazol-4-yl}-1H-benzimidazol-1-yl)phenyl]-N′-(2,2,2-trifluoroethyl)urea]
< 10 nM	O=C(NCC(F)(F)F)Nc1cccc(-n2cnc3cc(-c4cnn(C5CCN(C(=O)CC6CC6)CC5)c4)ccc32)c1 [Example 27, N-[3-(5-{1-[1-(Cyclopropylacetyl)piperidin-4-yl]-1H-pyrazol-4-yl}-1H-benzimidazol-1-yl)phenyl]-N′-(2,2,2-trifluoroethyl)urea]
< 10 nM	N#CCC(=O)N1CCC(n2cc(-c3ccc4c(c3)ncn4-c3cccc(NC(=O)NCC(F)(F)F)c3)cn2)CC1 [Example 28, N-[3-(5-{1-[1-(Cyanoacetyl)piperidin-4-yl]-1H-pyrazol-4-yl}-1H-benzimidazol-1-yl)phenyl]-N′-(2,2,2-trifluoroethyl)urea]
< 10 nM	O=C(NCC(F)(F)F)Nc1cccc(-n2cnc3cc(-c4cnn(C5CCN(C(=O)C6CCCO6)CC5)c4)ccc32)c1 (centres unmarked) [Example 29, N-[3-(5-{1-[1-(Tetrahydrofuran-2-ylcarbonyl)piperidin-4-yl]-1H-pyrazol-4-yl}-1H-benzimidazol-1-yl)phenyl]-N′-(2,2,2-trifluoroethyl)urea]

SMILES	IC50
O=C(NCC(F)(F)F)Nc1cccc(-n2cnc3cc(-c4cccc(C(=O)NCC5CC5)c4)ccc32)c1 [Example 1]	< 10 nM
